From ChEMBL document CHEMBL5104169, “Design and synthesis of mogrol derivatives modified on a ring with anti-inflammatory and anti-proliferative activities” (Bioorg Med Chem Lett, 2022)
Activity calls are given as the source filed them. The rule behind the calls is not given here.

Tests used:
NCI-H1975 [1] = assay: Induction of cell cycle arrest in human NCI-H1975 cells assessed as accumulation G1 phase at 8 uM incubated for 72 hrs (reference value: 66.36%); type: functional
NCI-H1975 [2] = assay: Induction of cell cycle arrest in human NCI-H1975 cells assessed as accumulation G2 phase at 8 uM incubated for 72 hrs (reference value: 11.97%); type: functional
NCI-H1299 [3] = assay: Induction of cell cycle arrest in human NCI-H1299 cells assessed as accumulation S phase at 2 uM incubated for 72 hrs (reference value: 43.67%); type: functional
NCI-H1299 [4] = assay: Induction of cell cycle arrest in human NCI-H1299 cells assessed as accumulation S phase at 8 uM incubated for 72 hrs (reference value: 43.67%); type: functional
RAW264.7 [5] = assay: Cytotoxicity against mouse RAW264.7 cells at 10 uM measured after 24 hrs by CCK-8 assay relative to control; type: toxicity, cell-based; settings: raw264.7, 24 h
NCI-H1975 [6] = assay: Induction of cell cycle arrest in human NCI-H1975 cells assessed as accumulation S phase at 2 uM incubated for 72 hrs (reference value: 22.67%); type: functional
NCI-H1975 [7] = assay: Induction of cell cycle arrest in human NCI-H1975 cells assessed as accumulation S phase at 8 uM incubated for 72 hrs (reference value: 22.67%); type: functional
NCI-H1299 [8] = assay: Induction of cell cycle arrest in human NCI-H1299 cells assessed as accumulation G2 phase at 8 uM incubated for 72 hrs (reference value: 16.08%); type: functional
NCI-H1975 [9] = assay: Antiproliferative activity against human NCI-H1975 cells; type: functional, cell-based
NCI-H1975 [10] = assay: Induction of cell cycle arrest in human NCI-H1975 cells assessed as accumulation G2 phase at 2 uM incubated for 72 hrs (reference value: 11.97%); type: functional
NCI-H460 = assay: Antiproliferative activity against human NCI-H460 cells; type: functional, cell-based
NCI-H1299 [11] = assay: Induction of cell cycle arrest in human NCI-H1299 cells assessed as accumulation G2 phase at 2 uM incubated for 72 hrs (reference value: 16.08%); type: functional
NCI-H1299 [12] = assay: Antiproliferative activity against human NCI-H1299 cells; type: functional, cell-based
NCI-H1299 [13] = assay: Induction of cell cycle arrest in human NCI-H1299 cells assessed as accumulation G1 phase at 8 uM incubated for 72 hrs (reference value: 40.25%); type: functional
NCI-H1975 [14] = assay: Antiproliferative activity against human NCI-H1975 cells assessed as decrease in p-p65 expression at 2 to 8 uM measured after 72 hrs by western blot analysis; type: functional, cell-based; settings: dose 2-8 µM
A549 = assay: Antiproliferative activity against human A549 cells; type: functional, cell-based
NCI-H1299 [15] = assay: Induction of cell cycle arrest in human NCI-H1299 cells assessed as accumulation G1 phase at 2 uM incubated for 72 hrs (reference value: 40.25%); type: functional
NCI-H1975 [16] = assay: Induction of cell cycle arrest in human NCI-H1975 cells assessed as accumulation G1 phase at 2 uM incubated for 72 hrs (reference value: 66.36%); type: functional
RAW264.7 [17] = assay: Antiinflammatory activity against LPS-induced mouse RAW264.7 cells assessed as decrease in phosphorylation levels of IkBalpha at 2.5 to 10 uM and measured by Western blot analysis; type: functional, cell-based; settings: dose 2.5-10 µM
RAW264.7 [18] = assay: Antiinflammatory activity against LPS-induced mouse RAW264.7 cells assessed as decrease in iNOS expression at 2.5 to 10 uM and measured by Western blot analysis; type: functional, cell-based; settings: dose 2.5-10 µM
RAW264.7 [19] = assay: Antiinflammatory activity against LPS-induced mouse RAW264.7 cells assessed as decrease in phosphorylation levels of p65 at 2.5 to 10 uM and measured by Western blot analysis; type: functional, cell-based; settings: dose 2.5-10 µM
RAW264.7 [20] = assay: Antiinflammatory activity against mouse RAW264.7 cells assessed as decrease in LPS-induced IL-6 level at 10 uM measured by ELISA assay; type: functional, cell-based
RAW264.7 [21] = assay: Antiinflammatory activity against mouse RAW264.7 cells assessed as decrease in LPS-induced TNF-alpha level at 10 uM measured by ELISA assay; type: functional, cell-based
RAW264.7 [22] = assay: Inhibition of LPS-induced NO production in mouse RAW264.7 cells; type: functional, cell-based
RAW264.7 [23] = assay: Inhibition of LPS-induced NO production in mouse RAW264.7 cells at 10 uM relative to control; type: functional

`C[C@H](CC[C@@H](O)C(C)(C)O)[C@H]1CC[C@@]2(C)[C@@H]3CC=C4[C@@H](C/C(=C\c5ccncc5)C(=O)C4(C)C)[C@]3(C)C(=O)C[C@]12C` was tested, and the Activity (NCI-H1975 [1]) was 83.96%, the Activity (NCI-H1975 [2]) was 6.38% and the Activity (NCI-H1299 [3]) was 40.12%. For the same molecule, the Activity (NCI-H1299 [4]) was 33.12%, the Activity (RAW264.7 [5]) was “Toxic” and the Activity (NCI-H1975 [6]) was 20.66%. It also gave an Activity (NCI-H1975 [7]) of 9.67%, an Activity (NCI-H1299 [8]) of 16.38% and an IC50 (NCI-H1975 [9]) of 7.24 µM. For the same molecule, the Activity (NCI-H1975 [10]) was 12.84%, the IC50 (NCI-H460) was 15.7 µM and the Activity (NCI-H1299 [11]) was 17.4%. The IC50 (NCI-H1299 [12]) was 8.39 µM, the Activity (NCI-H1299 [13]) was 50.5% and the Activity (NCI-H1975 [14]) was “Active”. The IC50 (A549) was 11.1 µM, the Activity (NCI-H1299 [15]) was 42.49% and the Activity (NCI-H1975 [16]) was 66.51%.

In the case of `COc1ccc2[nH]c3c(c2c1)C[C@@H]1C(=CC[C@@H]2[C@@]1(C)C(=O)C[C@]1(C)[C@@H]([C@H](C)CC[C@@H](O)C(C)(C)O)CC[C@@]21C)C3(C)C`, the Activity (RAW264.7 [17]) is reported as “Active”, the Activity (RAW264.7 [18]) is reported as “Active” and the Activity (RAW264.7 [19]) is reported as “Active”. For the same molecule, the IC50 (NCI-H1975 [9]) was 19 µM, the Activity (RAW264.7 [20]) was “Active” and the Activity (RAW264.7 [21]) was “Active”. It also gave an IC50 (NCI-H460) greater than 30 µM, an IC50 (NCI-H1299 [12]) greater than 30 µM and an IC50 (RAW264.7 [22]) of 5.05 µM. The IC50 (A549) was 21.9 µM and the inhibition at 10 µM (RAW264.7 [23]) was 87.6%.
